In ChEMBL document CHEMBL3046090, “Mechanism of the Phytotoxic Action of Herbicidal N-Isobutyl-N-(4-substituted benzyl)-4-halo-2-pentenamides” (J Pestic Sci, 2002):
Active and inactive are the calls of the source. No cut-off for these calls is given here.

Tests used:
[1] = test system: Gossypium hirsutum; assay: Phytotoxicity against Gossypium hirsutum (cotton) seedlings assessed as complete killing measured under light conditions at 100 uM; format: functional, organism-based
[2] = test system: Gossypium hirsutum; assay: Phytotoxicity against Gossypium hirsutum (cotton) seedlings assessed as damage measured under dark conditions at 100 uM; format: functional, organism-based
[3] = test system: Gossypium hirsutum; assay: Phytotoxicity against Gossypium hirsutum (cotton) seedlings assessed as cotyledons are killed but stems are not wilted measured under light conditions at 100 uM; format: functional, organism-based
[4] = test system: Gossypium hirsutum; assay: Phytotoxicity against Gossypium hirsutum (cotton) seedlings assessed as moderate darkening measured under dark conditions at 100 uM; format: functional, organism-based
[5] = test system: Lathyrus oleraceus; assay: Inhibition of Succinate-cytochrome c reductase in Pisum sativum (pea) mitochondrial respiratory-chain electron-transport system at 100 uM
[6] = test system: Gossypium hirsutum; assay: Phytotoxicity against Gossypium hirsutum (cotton) seedlings assessed as heavily dark-browning with wrinkling measured under dark conditions at 100 uM; format: functional, organism-based
[7] = test system: Gossypium hirsutum; assay: Phytotoxicity against Gossypium hirsutum (cotton) seedlings assessed as cotyledons are killed and stems are partially survived measured under light conditions at 100 uM; format: functional, organism-based
[8] = test system: Gossypium hirsutum; assay: Phytotoxicity against Gossypium hirsutum (cotton) seedlings assessed as cotyledons are damaged with green spots measured under light conditions at 100 uM; format: functional
[9] = test system: Gossypium hirsutum; assay: Phytotoxicity against Gossypium hirsutum (cotton) seedlings assessed as light darkening measured under dark conditions at 100 uM; format: functional, organism-based
[10] = Dissociation constant, pKa of the compound; format: physicochemical
[11] = test system: Lathyrus oleraceus; assay: Inhibition of Succinate-cytochrome c reductase in Pisum sativum (pea) mitochondrial respiratory-chain electron-transport system at 0.1 uM

For `COC(=O)CSc1cc(/N=c2\sc(=O)n3n2CCCC3)c(F)cc1Cl`, the Activity [1] was “Active” and the Activity [2] was “inactive”.

In the case of `CC(Cl)/C=C/C(=O)N(Cc1ccc(Cl)cc1)CC(C)C` (stereo not given), the Activity [3] is reported as “Active”, the Activity [4] is reported as “Active” and the inhibition [5] is reported as 0%.

In the case of `CC(Br)/C=C/C(=O)N(Cc1ccc(Cl)cc1)CC(C)C` (stereo not given), the Activity [3] is reported as “Active”, the Activity [6] is reported as “Active” and the inhibition [5] is reported as 0%.

In the case of `CC(C)Oc1cc(-n2nc(C(C)(C)C)oc2=O)c(Cl)cc1Cl`, the Activity [2] is reported as “inactive” and the Activity [7] is reported as “Active”.

With `CC(Cl)/C=C/C(=O)N(Cc1ccc(S(C)(=O)=O)cc1)CC(C)C` (stereo not given) the Activity [8] was 50%, the Activity [9] was “Active” and the inhibition [5] was 5.8%.

In the case of `O=C1C2=C(CCCC2)C(=O)N1c1ccc(Cl)cc1` [CHLOROPHTHALIUM], the pKa [10] is reported as 6.43.

In the case of `O=[N+]([O-])c1ccc(Oc2ccc(Cl)cc2Cl)cc1` [NITROFEN], the Activity [8] is reported as 10% and the Activity [2] is reported as “inactive”.

With `CCOc1cc(Oc2ccc(C(F)(F)F)cc2Cl)ccc1[N+](=O)[O-]` [OXYFLUORFEN] the pKa [10] was 7.63.

Molecule `CCCCCC[C@H]1C(=O)O[C@H](C)[C@H](NC(=O)c2cccc(NC=O)c2O)C(=O)O[C@@H](C)[C@@H]1OC(=O)CC(C)C` has an inhibition [11] of 100%.

For `CC(Cl)/C=C/C(=O)N(Cc1ccc(C#N)cc1)CC(C)C` (stereo not given), the Activity [1] was “Active”, the Activity [6] was “Active” and the inhibition [5] was 4.6%. It also gave a pKa [10] of 4.82.

With `CC(Cl)/C=C/C(=O)N(Cc1ccc(C(F)(F)F)cc1)CC(C)C` (stereo not given) the Activity [8] was 10%, the Activity [4] was “Active” and the inhibition [5] was 1.2%.
